What all share (assay): growth of human tumour cells (NCI), 48 h
The subject of test [1] is ACHN renal.
Test [2] relates to COLO 205 colon.
Test [3] has as its system HCT-15 colon.
Test [4] concerns HOP-62 NSCLC.
Test [5] concerns MALME-3M melanoma.
Test [6] relates to SK-MEL-5 melanoma.
For test [7], the system named is SK-OV-3 ovarian.
Test [8] deals with SNB-19 CNS.
In test [9] the test system is U251 CNS.
Test [10] deals with UACC-257 melanoma.
In test [11] the test system is UO-31 renal.
Test [12] concerns SF-539 CNS.
Test [13] concerns HOP-92 NSCLC.

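Assay format: 96-well plates, 48-hour exposure. TGI is the concentration that stops growth completely.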

Consider `ONC1=Nc2cc(Cl)ccc2C(=S)N2CSCC12` (stereo not drawn), for which the TGI in [1], in test [2], in [3], in test [4], in [5] and in test [6] was more than 100 µM in each case. The TGI in test [7], in test [8], in test [9], in [10] and in test [11] was more than 100 µM throughout.

On to `CC1(C)C2CCC1(C)C(N/C(Sc1ccccc1)=C(/C(Cl)=C(Cl)Cl)[N+](=O)[O-])C2` (stereo not drawn), for which the TGI in [1] was 26.3 µM; in test [3] it was 24.1 µM; in test [4], 62.9 µM; in test [5], 28.4 µM; in test [12], 26.2 µM; in test [7] it was 34.7 µM. Further, the TGI in test [8] stood at 43.9 µM; in [9] it was 23.5 µM; in test [10], 27.4 µM; in test [11] it was 26 µM.

In the case of `C=CC[C@]1(/C=N/O)CN(S(=O)(=O)CC[Si](C)(C)C)C[C@H]2CC=CC[C@H]21`, the TGI is 32.6 µM in test [2]; more than 100 µM in test [3]; 39 µM in [4]; 40.4 µM in test [5]; 32.8 µM in test [12]; more than 100 µM in [6]. The TGI in test [7] is 64.5 µM; in test [8], 42.3 µM; in test [9] it was 32.2 µM; in test [10] it was 60.6 µM; in test [11] it was more than 100 µM.

`O=C1/C(=C\c2ccc([N+](=O)[O-])cc2)N(S(=O)(=O)c2ccccc2)c2ncccc21`: the TGI was determined as 31.4 µM in [1]; 56.8 µM in test [2]; 32.3 µM in test [3]; 46.2 µM in test [4]; 33 µM in test [5]; 55.5 µM in [12]. The TGI in test [6] turned out to be 31.4 µM; in test [7], 19.8 µM; in test [8], 65 µM; in test [9], 34.2 µM; in test [10] it was 42.8 µM; in [11], 38.2 µM.

For the compound `COc1cc2c(cc1OCCCCCCCCCCN1C(=O)c3cccc4cccc(c34)C1=O)N=C[C@@H]1CCCN1C2=O`, the TGI in [1] is 30 µM; in test [2], 15.9 µM; in [3], 16.9 µM; in test [4] it was more than 100 µM; in test [5] it was 34 µM; in test [12], 3.21 µM. Also, the TGI in [6] came to 22.8 µM; in test [7] it was 19.8 µM; in test [8], 57.6 µM; in test [9], 13.4 µM; in [10], 37.3 µM; in [11] it was 28.5 µM.

Consider `Nc1ccccc1CCN1CCN(CCCc2ccccc2)CC1`, for which the TGI in [1] is more than 100 µM; in [2] it was 55 µM; in test [3], more than 100 µM; in test [4] it was more than 100 µM; in [5], 31.6 µM; in [12], more than 100 µM. The TGI in [6] is 32.6 µM; in test [7] it was more than 100 µM; in test [8], more than 100 µM; in [9], more than 100 µM; in test [10], more than 100 µM; in test [11], more than 100 µM.

Take `COc1ccc(Cn2c(=O)c(OC)c(C)c3cc4ccccc4cc32)cc1`: the TGI in [1] is more than 100 µM; in test [2], 40.2 µM; in test [3] it was more than 100 µM; in test [4] it was more than 100 µM; in test [5] it was 72.7 µM; in test [12] it was more than 100 µM. Moreover, the TGI was 22.2 µM in test [6]; more than 100 µM in test [7]; more than 100 µM in test [8]; 80.6 µM in test [9]; 9.02 µM in test [10]; more than 100 µM in [11].

Turning to `CSc1c(C(=O)Nc2ccccc2)c(N)n(N)c(=O)c1C#N`, the TGI in test [2], in [3], in test [5], in [12], in [6] and in test [7] was more than 100 µM in each case. Besides, the TGI in test [8], in test [9], in test [10] and in test [11] was more than 100 µM each time.

As for `CCOC(=O)c1sc(=S)n(-c2ccc(Cl)cc2)c1-n1cc(-c2ccccc2)c(C#N)c1N`, the TGI in [1] was 40.9 µM; in [2], more than 100 µM; in test [3], more than 100 µM; in test [4], 14.7 µM; in [13], 31.2 µM; in [12], 50.6 µM. Besides, the TGI in test [6] was 84.5 µM; in test [7], 36 µM; in test [8], 41.6 µM; in test [9], 32.7 µM; in [10], more than 100 µM.

Take `CC12C=CC(C)(C3C(=O)C4C(C(=O)C31)C1(C)C=CC4(C)S1=O)S2=O` (stereo not drawn): the TGI in test [1], in test [2], in test [3], in test [4], in test [5] and in [12] was more than 100 µM throughout. Besides, the TGI in test [6], in test [7], in [8], in test [10] and in test [11] was more than 100 µM each time.

Regarding `CC(C)(C)C1CCC(=O)/C(=C/CC2CC(=O)N(c3ccccc3)C(=O)C2)C1` (stereo not drawn), the TGI in [1] came to 42.9 µM; in test [2] it was 41.2 µM; in [3], 33.2 µM; in [4], 72.8 µM; in [5], 36.7 µM; in test [6], 31.7 µM. In addition, the TGI in test [8] came out at 51.6 µM; in [9], 31 µM; in test [10] it was 28.2 µM; in test [11], 30.2 µM.

Turning to `N#Cc1ccc(-c2nc3c(N)ncnc3o2)cc1`, the TGI in [1], in test [2], in [3], in [4], in [12] and in [6] was more than 100 µM throughout. Further, the TGI in test [8], in test [10] and in test [11] was more than 100 µM each time.

As for `COC(=O)C1Cc2cc3c(cc2C1=O)CCC3` (stereo not drawn), the TGI in [1], in [2], in [3], in [4], in test [5] and in test [12] was more than 100 µM throughout. The TGI in test [6], in test [7], in [8], in test [9], in [10] and in [11] was more than 100 µM throughout.

Turning to `O=C1NC(=S)N/C1=C\c1cccs1`, the TGI in [2], in test [3], in test [4], in [5], in [12] and in test [6] was more than 100 µM in each case. The TGI in [7], in test [8], in test [9] and in [11] was more than 100 µM each time.

With `Clc1ccc(CCN(CCc2ccc(Cl)c(Cl)c2)CCN2CCCC2)cc1Cl`, the TGI in test [1] came to 3.2 µM; in test [2], 3.48 µM; in [3] it was 3.28 µM; in [4], 3.03 µM; in test [5], 3.5 µM; in test [12] it was 3.18 µM. Moreover, the TGI in [6] is 3.2 µM; in [7], 3.49 µM; in [9], 2.95 µM; in test [10], 3.37 µM; in test [11], 3 µM.

With `COc1ccc2nc(N/N=C/c3sccc3C)cc(C)c2c1`, the TGI came out at 56.2 µM in test [1]; 32.7 µM in test [2]; 30.5 µM in test [3]; 36.3 µM in test [4]; 26.4 µM in test [13]; 31.3 µM in test [5]. Moreover, the TGI in [6] is 25.5 µM; in test [7] it was 32.1 µM; in test [8] it was more than 100 µM; in test [9] it was 73.5 µM; in test [10], 32.3 µM; in test [11], 65.1 µM.

For the compound `COc1c(=O)cc2cc[nH]c3cc[nH]c1c23`, the TGI in [1], in test [2], in [3], in test [13], in test [5] and in test [6] was more than 100 µM each time. Besides, the TGI in test [7], in test [8], in test [9], in test [10] and in test [11] was more than 100 µM each time.

As for `O=S(=O)(O)c1ccc(N=Nc2ccc3c(S(=O)(=O)O)cccc3c2O)c2ccccc12`, the TGI in test [1], in test [2], in test [3], in test [4], in test [13] and in test [5] was more than 100 µM each time. For the same compound, the TGI in test [6], in [7], in test [8], in test [9], in [10] and in [11] was more than 100 µM each time.

Turning to `CNc1ncccc1Nc1cc(=O)n2c3cccnc3n(C)c2c1`, the TGI in [1], in test [2], in test [3], in [4], in [12] and in [6] was more than 100 µM in each case. The TGI in test [7], in test [8], in [9], in test [10] and in test [11] was more than 100 µM each time.

In the case of `CN(/N=C/c1ccc(C(=O)O)cc1)C1=NCCCCN1`, the TGI in [1], in test [2], in test [3], in [4], in [5] and in test [12] was more than 100 µM in each case. The TGI in [6], in test [7], in [8], in test [9], in [10] and in test [11] was more than 100 µM in each case.

As for `C=C(CCOC)CCC1CCCCC(CN(C)C)C1=O` (stereo not drawn), the TGI in test [1], in test [2], in [3], in test [4], in [5] and in [6] was more than 100 µM each time. In addition, the TGI in test [7], in test [8], in test [9] and in test [11] was more than 100 µM each time.

Regarding `COC1(OC)N=C(N)C2(C#N)C(c3ccccc3)NC3=C(CCC3)C12C#N` (stereo not drawn), the TGI in [1], in test [2], in [3], in test [4], in test [13] and in [5] was more than 100 µM each time. In addition, the TGI in test [6], in test [7], in test [8], in test [9], in [10] and in test [11] was more than 100 µM in each case.

Take `COc1ccc(-c2c(C(C)=O)c(-c3ccccc3)n(C3OC(CO)C(O)C(O)C3O)c(=S)c2C#N)cc1` (stereo not drawn): the TGI in test [1], in test [2], in [3], in test [4], in test [5] and in test [12] was more than 100 µM throughout. Further, the TGI in test [6], in [7], in test [8], in [9], in [10] and in [11] was more than 100 µM throughout.

On to `NC(=Nc1ccccc1Cl)c1ccccc1N`, for which the TGI was more than 100 µM in test [1]; more than 100 µM in test [2]; more than 100 µM in [3]; more than 100 µM in [4]; 86.5 µM in test [13]; more than 100 µM in [5]. For the same compound, the TGI in test [6], in test [7], in test [8], in [9], in [10] and in test [11] was more than 100 µM in each case.

Values taken from PubChem BioAssay (NCI).
